28 compounds from patent publication US20050054696A1, “Indole compounds and medicinal use thereof” (priority 2001, published 2005) can be followed below.

pIC50: −log10 of the molar value.

For the assay, the target named is T1, recombinant human liver glycogen phosphorylase (HLGPa) (Homo sapiens, UniProt P06737).
T1 construct: made in house; host or cells: Sf9 insect cells (unpurified cell lysate used as enzyme solution)
T1 sequence (P06737 1-847): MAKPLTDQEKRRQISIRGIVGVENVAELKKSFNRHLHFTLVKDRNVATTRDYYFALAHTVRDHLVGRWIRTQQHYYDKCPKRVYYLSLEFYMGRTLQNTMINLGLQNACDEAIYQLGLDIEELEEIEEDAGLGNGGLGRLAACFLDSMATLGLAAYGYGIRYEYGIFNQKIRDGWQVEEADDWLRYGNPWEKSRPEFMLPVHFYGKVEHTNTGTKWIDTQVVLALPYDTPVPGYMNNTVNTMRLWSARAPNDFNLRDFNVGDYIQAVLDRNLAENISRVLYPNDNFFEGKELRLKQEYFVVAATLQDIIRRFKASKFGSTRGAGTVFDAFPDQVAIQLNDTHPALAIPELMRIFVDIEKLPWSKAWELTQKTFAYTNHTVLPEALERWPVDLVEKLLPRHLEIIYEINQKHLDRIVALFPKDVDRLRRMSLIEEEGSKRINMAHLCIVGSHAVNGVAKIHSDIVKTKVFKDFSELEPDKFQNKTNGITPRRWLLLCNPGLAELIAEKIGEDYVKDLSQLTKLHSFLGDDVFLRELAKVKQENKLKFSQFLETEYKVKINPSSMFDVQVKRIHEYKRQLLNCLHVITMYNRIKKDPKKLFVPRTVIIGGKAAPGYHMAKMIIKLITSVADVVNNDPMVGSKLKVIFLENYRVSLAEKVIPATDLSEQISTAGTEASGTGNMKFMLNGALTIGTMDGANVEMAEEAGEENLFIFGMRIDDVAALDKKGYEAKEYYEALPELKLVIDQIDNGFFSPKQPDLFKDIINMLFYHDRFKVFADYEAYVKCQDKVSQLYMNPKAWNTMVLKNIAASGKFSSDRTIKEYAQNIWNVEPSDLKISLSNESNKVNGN
As to the kind of experiment: Measurement of liver glycogen phosphorylase activity (enzyme inhibitory activity against HLGPa). Format: biochemical. To be noted: Sf9 cell lysate expressing recombinant enzyme; reverse reaction (glycogen synthesis from G1-P), phosphate by malachite green, 60 min room temperature. How it is done:
Measurement Method of Liver Glycogen Phosphorylase Activity
The measurement of the glycogen phosphorylase activity was performed by measuring the concentration of phosphoric acic produced by a reverse reaction, that is, a reaction wherein the glycogen phosphorylase synthesizes glycogen from G1-P. A cell lysate of Sf9 cells that forcibly expressed recombinant human liver glycogen phosphorylase was diluted to a protein amount of 80 μg/mL with 1 mM imidazole-hydrochloric acid buffer (pH 7.0, containing 0.2 mM PMSF, 250 mM NaCl, 0.025% BSA) and the dilute cell lysate was used as an enzyme solution of human liver glycogen phosphorylase. As a substrate solution, 25 mM Tris-HCl buffer (pH 7.2, containing 250 mM KCl, 6.25 mM MgCl2, 6.25 mM EGTA, 1.25 mM glucose-1-phosphate, 2.5 mg/ml glycogen, 7.5 mM glucose) was used. The test drug was dissolved in 0.5% dimethyl sulfoxide (DMSO). To a mixture of the test drug (10 μl) and the substrate solution (20 μl) was added an enzyme solution (20 μl) to start the enzyme reaction. As a control, 0.5% DMSO was added instead of the test drug. One free of addition of enzyme was used as a blank. The mixture was reacted at room temperature for 60 min, and a malachite green solution (50 μl) was added. The mixture was further reacted at room temperature for 20 min and absorbance at 650 nm was measured. An enzyme solution was added to the blank simultaneously with the malachite green solution and the measurement was done in the same manner. The percent inhibition (%) of the test drug was calculated from ((value of control−value of the test drug)/(value of control−value of blank))×100 (%).

On to `O=C(NNC(=O)c1ccc(Cl)nc1Cl)c1cc2cc(Cl)ccc2[nH]1` [Example 1-79, 2,6-dichloronicotinic acid 2-(5-chloro-1H-indole-2-carbonyl)hydrazide], for which the pIC50 was 7.08.

Take `CC(C)c1ccc2[nH]c(C(=O)Nn3c(=O)[nH]c4ccccc4c3=O)cc2c1` [Example 2-9, 5-isopropyl-1H-indole-2-carboxylic acid (1,2,3,4-tetrahydro-2,4-dioxoquinazolin-3-yl)amide]: the pIC50 was less than 7.00.

Turning to `O=C(NNC(=O)C1(c2ccccc2)CCCC1)c1cc2cc(Cl)ccc2[nH]1` [Example 5-13, 5-chloro-1H-indole-2-carboxylic acid 2-((1-phenylcyclopentane)carbonyl)hydrazide], the pIC50 is 6.39.

In the case of `N=C(NNC(=O)c1cc2cc(Cl)ccc2[nH]1)c1ccc(F)cc1` [Example 1-128, 5-chloro-1H-indole-2-carboxylic acid 2-((4-fluorophenyl)-imino-methyl)hydrazide], the pIC50 is 7.48.

As to `CN(NC(=O)c1cc2cc(Cl)ccc2[nH]1)C(=O)Nc1ccccc1` [Example 5-8, 5-chloro-1H-indole-2-carboxylic acid 2-(anilinocarbonyl)-2-methylhydrazide], the pIC50 is less than 7.00.

On to `O=C(Nc1ccccc1C(=O)NNC(=O)c1cc2cc(Cl)ccc2[nH]1)OCCCO` [Example 1-112, 3-hydroxypropyl (2-(2-(5-chloro-1H-indole-2-carbonyl)hydrazinocarbonyl)phenyl)carbamate], for which the pIC50 was 7.55.

Regarding `CC(=O)Oc1ccc2[nH]c(=O)n(NC(=O)c3cc4cc(C)ccc4[nH]3)c(=O)c2c1` [Example 2-29, acetic acid 3-((5-methyl-1H-indole-2-carbonyl)amino)-1,2,3,4-tetrahydro-2,4-dioxoquinazolin-6-yl ester], the negative logarithm of the IC50 (pIC50) was 6.57.

On to `O=C(NNC(=O)c1cc2cc(Cl)ccc2[nH]1)c1cccnc1` [Example 1-43, nicotinic acid 2-(5-chloro-1H-indole-2-carbonyl)hydrazide], for which the pIC50 was 7.02.

Regarding `Cc1ccc2[nH]c(C(=O)Nn3c(=O)[nH]c4ccc(O)cc4c3=O)cc2c1` [Example 2-28, 5-methyl-1H-indole-2-carboxylic acid (1,2,3,4-tetrahydro-6-hydroxy-2,4-dioxoquinazolin-3-yl)amide], the pIC50 is 7.25.

For `COc1ccc2[nH]c(=O)n(NC(=O)c3cc4cc(C)ccc4[nH]3)c(=O)c2c1` [Example 2-27, 5-methyl-1H-indole-2-carboxylic acid (1,2,3,4-tetrahydro-6-methoxy-2,4-dioxoquinazolin-3-yl)amide], the pIC50 is 6.52.

Turning to `O=C(NNC(=O)c1cc2cc(F)ccc2[nH]1)c1ccccc1` [Example 1-9, benzoic acid 2-(5-fluoro-1H-indole-2-carbonyl)hydrazide], the pIC50 was 7.14.

`Cc1ccc2[nH]c(C(=O)NNC(=O)c3ccsc3)cc2c1` [Example 1-107, thiophene-3-carboxylic acid 2-(5-methyl-1H-indole-2-carbonyl)hydrazide]: the pIC50 is 7.27.

As for `CC(=O)N[C@H](C(=O)NNC(=O)c1cc2cc(Cl)ccc2[nH]1)c1ccccc1` (stereo in doubt) [Example 5-19, N-(2-(2-(5-chloro-1H-indole-2-carbonyl)hydrazino)-2-oxo-1-phenylethyl)acetamide], the pIC50 was 6.44.

For the compound `O=C(Nn1c(=O)[nH]c2ccc(Cl)cc2c1=O)c1cc2cc(Cl)ccc2[nH]1` [Example 2-18, 5-chloro-1H-indole-2-carboxylic acid (6-chloro-1,2,3,4-tetrahydro-2,4-dioxoquinazolin-3-yl)amide], the pIC50 was 7.40.

With `O=C(Nn1c(=O)[nH]c2ccccc2c1=O)c1cc2cc(Cl)ccc2[nH]1` [Example 2, N-(1,2,3,4-tetrahydro-2,4-dioxoquinazolin-3-yl)-5-chloro-1H-indole-2-carboxamide], the negative-log IC50 (pIC50) was 7.80.

On to `O=C(NNC(=O)c1ccccc1OCCO)c1cc2cc(Cl)ccc2[nH]1` [Example 1-68, 2-(2-hydroxyethoxy)benzoic acid 2-(5-chloro-1H-indole-2-carbonyl)hydrazide], for which the pIC50 was 6.80.

For `Cc1ccc2[nH]c(C(=O)Nn3c(=O)[nH]c4cc(F)c(F)cc4c3=O)cc2c1` [Example 2-26, 5-methyl-1H-indole-2-carboxylic acid (6,7-difluoro-1,2,3,4-tetrahydro-2,4-dioxoquinazolin-3-yl)amide], the negative logarithm of the IC50 (pIC50) is 6.68.

Turning to `CC(C)c1ccc2[nH]c(C(=O)NNC(=O)c3ccc(F)cc3N)cc2c1` [Example 1-37, 2-amino-4-fluorobenzoic acid 2-(5-isopropyl-1H-indole-2-carbonyl)hydrazide], the pIC50 was less than 7.00.

For the compound `O=C(Nn1c(=O)oc2ccccc2c1=O)c1cc2cc(Cl)ccc2[nH]1` [Example 2-2, N-(1,2,3,4-tetrahydro-2,4-dioxobenzo[e][1,3]oxazin-3-yl)-5-chloro-1H-indole-2-carboxamide], the pIC50 was 7.15.

For `O=C(NNC(=O)c1ccc(F)cc1F)c1cc2cc(Cl)ccc2[nH]1` [Example 1-26, 2,4-difluorobenzoic acid 2-(5-chloro-1H-indole-2-carbonyl)hydrazide], the pIC50 is 7.74.

Take `O=C(O)Cn1c(=O)n(NC(=O)c2cc3cc(Cl)ccc3[nH]2)c(=O)c2ccccc21` [Example 2-21, 2-(3-((5-chloro-1H-indole-2-carbonyl)amino)-1,2,3,4-tetrahydro-2,4-dioxoquinazolin-1-yl)acetic acid]: the pIC50 is less than 7.00.

Regarding `CC(C)c1ccc2[nH]c(C(=O)Nn3c(=O)[nH]c4cc(F)ccc4c3=O)cc2c1` [Example 2-10, 5-isopropyl-1H-indole-2-carboxylic acid (7-fluoro-1,2,3,4-tetrahydro-2,4-dioxoquinazolin-3-yl)amide], the pIC50 was less than 7.00.

For the compound `O=C(NN1C(=O)CCN(c2ccccc2)C1=O)c1cc2cc(F)ccc2[nH]1` [Example 3-9, 5-fluoro-1H-indole-2-carboxylic acid (2,4-dioxo-1-phenyl-perhydropyrimidin-3-yl)amide], the pIC50 was 6.14.

Consider `COc1ccc([C@H]2NC(=O)N(NC(=O)c3cc4cc(Cl)ccc4[nH]3)C2=O)cc1` [Example 4-20, 5-chloro-1H-indole-2-carboxylic acid ((4R)-2,5-dioxo-4-(4-methoxyphenyl)imidazolidin-1-yl)amide], for which the negative logarithm of the IC50 (pIC50) was 6.77.

`O=C(NNC(=O)c1c(Cl)cccc1Cl)c1cc2cc(Cl)ccc2[nH]1` [Example 1-25, 2,6-dichlorobenzoic acid 2-(5-chloro-1H-indole-2-carbonyl)hydrazide]: the pIC50 was 6.85.

As for `Cc1ccc2[nH]c(C(=O)NNC(=O)c3ccccc3)cc2c1` [Example 1-33, benzoic acid 2-(5-methyl-1H-indole-2-carbonyl)hydrazide], the negative-log IC50 (pIC50) is 7.07.

`Nc1ccc(Cl)cc1C(=O)NNC(=O)c1cc2cc(Cl)ccc2[nH]1` [Example 1-57, 2-amino-5-chlorobenzoic acid 2-(5-chloro-1H-indole-2-carbonyl)hydrazide]: the pIC50 was 7.52.

With `O=C(NNC(=O)c1cc2cc(Cl)ccc2[nH]1)Nc1cccc(F)c1` [Example 5-6, 5-chloro-1H-indole-2-carboxylic acid 2-((3-fluorophenyl)aminocarbonyl)hydrazide], the pIC50 is 7.31.
